Values of other authors in US20140120162A1, “Bioadhesive Drug Delivery Compositions” (PEROSPHERE INC., priority 2011, published 2014).
Like-named read-outs stand apart in the source and are kept apart here.

Tests used:
[1] = not given; remark: listed apart in the source
[2] = not given; remark: listed apart in the source

Compound: CC(=O)O[C@H]1C(=O)[C@@]2(C)[C@H]([C@H](OC(=O)c3ccccc3)[C@]3(O)C[C@H](OC(=O)[C@H](O)[C@@H](NC(=O)c4ccccc4)c4ccccc4)C(C)=C1C3(C)C)[C@]1(OC(C)=O)CO[C@@H]1C[C@@H]2O [Paclitaxel]
- solubility in water: insoluble

Compound: C#C[C@]1(O)CC[C@H]2[C@@H]3CCC4=Cc5oncc5C[C@]4(C)[C@H]3CC[C@@]21C [Danazol, 17a-Pregna-2,4-dien-20-yno[2,3-d]-isoxazol-17-ol]
- half-life ([1]; danazol administered orally): 4 to 5 h
- time of peak concentrations ([1]; danazol administered orally): ≤ 2 h
- increase in plasma concentration on doubling the dose ([1]; danazol, doubling the dose): 30-40%

Compound: 1-[(4R,5S)-5-[(2-aminoethyl)amino]-N^2-(10,12-dimethyl-1-oxotetradecyl)-4-hydroxy-L-ornithine]-5-[(3IRI)-3-hydroxy-L-ornithine]pneumocandin B0 diacetate (salt) [Caspofungin acetate]
- pH of a saturated aqueous solution [2]: approximately 6.6
- bioavailability ([1]; caspofungin): 0%
- solubility in ethanol / alcohol: slightly soluble
- solubility in methanol: freely soluble
- solubility in water: freely soluble

Compound: NC(=O)N1c2ccccc2C=Cc2ccccc21 [Carbamazepine, 5H-dibenz[b,f]azepine-5-carboxamide]
- solubility in acetone (acetone): soluble
- solubility in ethanol / alcohol: soluble
- solubility in water: practically insoluble

Compound: C=CC[C@@H]1/C=C(\C)C[C@H](C)C[C@H](OC)[C@H]2O[C@@](O)(C(=O)C(=O)N3CCCC[C@H]3C(=O)O[C@H](/C(C)=C/[C@@H]3CC[C@@H](O)[C@H](OC)C3)[C@H](C)[C@@H](O)CC1=O)[C@H](C)C[C@@H]2OC [Tacrolimus]
- absolute bioavailability ([1]; tacrolimus, 5 mg dose taken twice a day, oral): approximately 17%
- solubility in chloroform (chloroform): very soluble
- solubility in ethanol / alcohol: freely soluble
- solubility in methanol: very soluble
- solubility in water: practically insoluble

Compound: NCC1(CC(=O)O)CCCCC1 [Gabapentin]
- bioavailability ([1]; gabapentin, at best, 900 mg dose given three times a day): ≤ 60%
- metabolism in humans ([1]; humans): not appreciably metabolized
